Test results taken from PubChem BioAssay (NCI).
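The compound was tested at five concentrations on cells cultured in 96-well plates, with a 48-hour exposure period. TGI: concentration producing complete growth inhibition.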

Key:
Assay in all cases: NCI-60 cell line screen, 48 h
[1] = test system: TK-10 renal
[2] = test system: A498 renal
[3] = test system: HOP-62 NSCLC
[4] = test system: SK-MEL-2 melanoma
[5] = test system: DMS 273 small cell lung
[6] = test system: CCRF-CEM leukemia
[7] = test system: HL-60(TB) leukemia
[8] = test system: DMS 114 small cell lung
[9] = test system: NCI-H23 lung
[10] = test system: RPMI-8226 leukemia
[11] = test system: SK-MEL-28 melanoma
[12] = test system: SNB-19 CNS
[13] = test system: SNB-78 CNS
[14] = test system: MOLT-4 leukemia
[15] = test system: LXFL 529 NSCLC
[16] = test system: SF-268 CNS
[17] = test system: UACC-62 melanoma
[18] = test system: KM20L2 colon
[19] = test system: SK-OV-3 ovarian
[20] = test system: U251 CNS
[21] = test system: SNB-75 CNS
[22] = test system: OVCAR-5 ovarian
[23] = test system: SW-620 colon
[24] = test system: NCI-H522 lung
[25] = test system: CAKI-1 renal
[26] = test system: HT29 colon
[27] = test system: SR leukemia
[28] = test system: EKVX NSCLC
[29] = test system: LOX IMVI melanoma
[30] = test system: A549 NSCLC
[31] = test system: K-562 leukemia
[32] = test system: M14 melanoma
[33] = test system: IGROV1 ovarian
[34] = test system: KM12 colon
[35] = test system: DLD-1 colon
[36] = test system: HCT-15 colon
[37] = test system: OVCAR-8 ovarian
[38] = test system: ACHN renal
[39] = test system: COLO 205 colon
[40] = test system: 786-0 renal
[41] = test system: NCI-H226 lung
[42] = test system: OVCAR-3 ovarian
[43] = test system: OVCAR-4 ovarian
[44] = test system: HCT-116 colon
[45] = test system: MALME-3M melanoma
[46] = test system: UO-31 renal
[47] = test system: NCI-H460 lung
[48] = test system: SK-MEL-5 melanoma
[49] = test system: SN12C renal
[50] = test system: SF-295 CNS
[51] = test system: HOP-18 NSCLC
[52] = test system: UACC-257 melanoma
[53] = test system: HCC-2998 colon
[54] = test system: M19-MEL melanoma
[55] = test system: RXF 393 renal
[56] = test system: HOP-92 NSCLC
[57] = test system: SF-539 CNS

With `COC(=O)C(=O)C1(CCC(C)=O)c2ccccc2-c2c(C)ccc(C)c21` (centres undefined) the TGI [1] was > 100 µM, the TGI [2] was > 100 µM and the TGI [3] was > 100 µM. The TGI [4] was > 100 µM, the TGI [5] was > 100 µM and the TGI [6] was > 100 µM. For the same compound, the TGI [7] was 32.1 µM, the TGI [8] was > 100 µM and the TGI [9] was > 100 µM. For the same compound, the TGI [10] was 78.6 µM, the TGI [11] was > 100 µM and the TGI [12] was > 100 µM. The TGI [13] was 78.5 µM, the TGI [14] was 66 µM and the TGI [15] was > 100 µM. For the same compound, the TGI [16] was > 100 µM, the TGI [17] was > 100 µM and the TGI [18] was > 100 µM. For the same compound, the TGI [19] was > 100 µM, the TGI [20] was > 100 µM and the TGI [21] was > 100 µM. For the same compound, the TGI [22] was > 100 µM, the TGI [23] was > 100 µM and the TGI [24] was 94.1 µM. The TGI [25] was > 100 µM, the TGI [26] was > 100 µM and the TGI [27] was 61.5 µM. The TGI [28] was > 100 µM, the TGI [29] was > 100 µM and the TGI [30] was > 100 µM. For the same compound, the TGI [31] was > 100 µM, the TGI [32] was > 100 µM and the TGI [33] was > 100 µM. The TGI [34] was > 100 µM, the TGI [35] was > 100 µM and the TGI [36] was > 100 µM. The TGI [37] was > 100 µM, the TGI [38] was > 100 µM and the TGI [39] was > 100 µM. For the same compound, the TGI [40] was > 100 µM, the TGI [41] was > 100 µM and the TGI [42] was > 100 µM. The TGI [43] was > 100 µM, the TGI [44] was > 100 µM and the TGI [45] was > 100 µM. The TGI [46] was > 100 µM, the TGI [47] was > 100 µM and the TGI [48] was 65.2 µM. The TGI [49] was > 100 µM, the TGI [50] was > 100 µM and the TGI [51] was > 100 µM. The TGI [52] was 91.8 µM, the TGI [53] was > 100 µM and the TGI [54] was > 100 µM. The TGI [55] was 76.1 µM.

In the case of `Cn1cnc(CCc2ccccc2)n1`, the TGI [1] is reported as > 100 µM, the TGI [2] is reported as > 100 µM and the TGI [3] is reported as > 100 µM. The TGI [4] was > 100 µM, the TGI [5] was > 100 µM and the TGI [6] was > 100 µM. For the same compound, the TGI [7] was > 100 µM, the TGI [8] was > 100 µM and the TGI [9] was > 100 µM. The TGI [10] was > 100 µM, the TGI [11] was > 100 µM and the TGI [13] was > 100 µM. The TGI [14] was > 100 µM, the TGI [56] was > 100 µM and the TGI [15] was > 100 µM. The TGI [16] was > 100 µM, the TGI [17] was > 100 µM and the TGI [18] was > 100 µM. For the same compound, the TGI [19] was > 100 µM, the TGI [20] was > 100 µM and the TGI [21] was > 100 µM. The TGI [22] was > 100 µM, the TGI [23] was > 100 µM and the TGI [24] was > 100 µM. For the same compound, the TGI [25] was > 100 µM, the TGI [26] was > 100 µM and the TGI [27] was > 100 µM. The TGI [29] was > 100 µM, the TGI [30] was > 100 µM and the TGI [31] was > 100 µM. The TGI [32] was > 100 µM, the TGI [33] was > 100 µM and the TGI [34] was > 100 µM. For the same compound, the TGI [35] was > 100 µM, the TGI [36] was > 100 µM and the TGI [37] was > 100 µM. For the same compound, the TGI [38] was > 100 µM, the TGI [39] was > 100 µM and the TGI [40] was > 100 µM. For the same compound, the TGI [41] was > 100 µM, the TGI [42] was > 100 µM and the TGI [43] was > 100 µM. The TGI [44] was > 100 µM, the TGI [45] was > 100 µM and the TGI [46] was > 100 µM. For the same compound, the TGI [47] was > 100 µM, the TGI [57] was > 100 µM and the TGI [48] was > 100 µM. The TGI [49] was > 100 µM, the TGI [50] was > 100 µM and the TGI [51] was > 100 µM. For the same compound, the TGI [52] was > 100 µM, the TGI [54] was > 100 µM and the TGI [55] was > 100 µM.
